Legend:
[1] = solubility in tetrahydrofuran; assay type: physicochemical; conditions: 25° C., weight dissolved completely in 1 g tetrahydrofuran
Procedure: Each of the Exemplified Compounds (1-1) and (1-2) was dissolved in 1 g of tetrahydrofuran at 25° C.
Experiments were conducted by using Comparative Compounds (3) to (5) in the same manner as in Example 8.

[2] = dissolution in binder polymer solution for film formation; assay type: physicochemical
Procedure: Into 85 parts by weight of tetrahydrofuran, 15 parts by weight of “Panlite TS-2020” (manufactured by Teijin Chemicals Ltd.) and 15 parts by weight of Compound (1-1) were dissolved by mixing. The solution was applied by using a doctor blade onto a sheet in which aluminum was vapor deposited on a polyethylene […] (PET) film, followed by drying at 80° C. for 3 hours. Thus, a charge transport layer was formed (thickness: 18 μm). Further, a translucent gold electrode was vapor deposited on this charge transport layer, and the charge carrier mobility was measured. For the measurement of the carrier mobility, a nitrogen gas laser having a pulse half width of […] and a wavelength of 337 nm was used as a light source, and the time-of-flight method (Toshiaki Tanaka, Yasuhiro Yamaguchi and Masaaki Yokoyama, Denshi Shashin (Electrophotography), 29, 366 (1990)) was employed. Table 1 and FIG. 1 show the results measured at 25° C. and 25 V/μm.
Experiments were conducted by using Comparative Compounds (1) to (6) in the same manner as in Example 1. […] Note that it was impossible to measure the mobility of Comparative Compounds (3) to (5) because of their insolubility.
Into 8 parts by weight of tetrahydrofuran, 1 part by weight of a polycarbonate “Z-200” (manufactured by Mitsubishi Engineering-Plastics Corporation) and 1 part by weight of Compound (1-1) or (1-2) were dissolved by mixing. The liquid was applied onto the charge generation layer, followed by drying at 80° C. for 2 hours, to thereby form a charge transport layer (thickness: approximately 20 μm). Thus, each electrophotographic photoreceptor was prepared.
Experiments were conducted by using Comparative Compounds (2) to (6) in the same manner as in Example 4. […] Note that it was impossible to measure the electrophotographic characteristics of Comparative Compounds (3) to (5) because of their insolubility.
Into 85 parts by weight of tetrahydrofuran, 15 parts by weight of “Panlite TS-2020” and 15 parts by weight of Compound (1-1) or (1-2) were dissolved by mixing. This liquid was applied onto a PET plate by using a doctor blade, followed by drying at 80° C. for 3 hours. Thus, a thin film was prepared (thickness: approximately 20 μm).
Experiments were conducted by using Comparative Compounds (3) to (5) in the same manner as in Example 6. […] Note that it was impossible to perform measurement of Comparative Compounds (3) to (5) because of their insolubility.

[3] = 1 part polycarbonate Z-200, 1 part compound, 8 parts tetrahydrofuran
[4] = 15 parts Panlite TS-2020, 15 parts compound, 85 parts tetrahydrofuran

Row | Solubility [1] [g/g tetrahydrofuran] | melting point [°C] | dissolution in binder polymer solution [2, 3] | dissolution in binder polymer solution [2, 4] | Compound
1 | 0.45 | 145 to 146 | – | – | COc1cccc(C=Cc2ccc(N(c3ccc(C=Cc4cccc(OC)c4)cc3)c3ccc(C=Cc4cccc(OC)c4)cc3)cc2)c1 [Compound (1-2)]
2 | 0.08 | – | not successfully dissolved | not successfully dissolved | Cc1ccc(/C=C/c2ccc(N(c3ccc(/C=C/c4ccc(C)cc4)cc3)c3ccc(/C=C/c4ccc(C)cc4)cc3)cc2)cc1 [Comparative Compound (3)]
3 | 0.10 | – | not successfully dissolved | not successfully dissolved | COc1ccc(/C=C/c2ccc(N(c3ccc(/C=C/c4ccc(OC)cc4)cc3)c3ccc(/C=C/c4ccc(OC)cc4)cc3)cc2)cc1 [Comparative Compound (5)]
4 | 0.02 | – | not successfully dissolved | not successfully dissolved | Cc1ccccc1/C=C/c1ccc(N(c2ccc(/C=C/c3ccccc3C)cc2)c2ccc(/C=C/c3ccccc3C)cc2)cc1 [Comparative Compound (4)]
5 | 0.40 | 98 to 99 | – | – | Cc1cccc(C=Cc2ccc(N(c3ccc(C=Cc4cccc(C)c4)cc3)c3ccc(C=Cc4cccc(C)c4)cc3)cc2)c1 [Compound (1-1)]

Source: patent US8859818B2, “Electrophotographic photoreceptor” (Takasago International Corporation, priority 2010, dated 2014)
